Where two headings read alike, the source gives them in different places. Where only a bound is given, the exact number is not on record here.

In general, IC50 refers to the midpoint of a concentration-inhibition curve.

The test system of assay [1] is human lung adenocarcinoma cells A549. The assay is described as follows: Inhibition on the proliferation of tumor cells (CCK8), A549. The class given is cell-based. The settings on record: for IC50: read-out: A549 IC50. How it is done: (§1) (1) Culture cells: The tumor cells (such as human lung adenocarcinoma cells HCC78, human malignant glioma cells U87MG, human gastric cancer cells MKN-45, human umbilical vein endothelial cells HUVEC, human lung adenocarcinoma cells A549, etc.) were cultured in culture medium; culture conditions: 37° C., 5% CO2.
(§2) (2) Inoculate cells: The cells at the exponential growth phase and in good state were taken, and an appropriate amount of pancreatin for cell dissociation was added thereto, the cells were collected for centrifugation, and the supernatant was discarded. The cells were resuspended with the culture solution containing serum, then counted, and the cell suspensions were taken and inoculated in a 96-hole plate at 3000/hole, 90 μL/hole. The culture plate was transferred into a constant temperature CO2 incubator, and cultured under the conditions of 37° C., 5% CO2 and saturated humidity for 24 h.
(§3) (3) Add the test compounds: 10 μL/hole, culture for 72 h, 3 parallel holes were set for each group.

Assay [2] concerns human malignant glioma cells U87MG. As to the kind of experiment: Inhibition on the proliferation of tumor cells (CCK8), U87MG. The class given is cell-based. The settings on record: read-out: U87MG IC50. How it is done: as §1, §2, §3
(§4) (4) Determine the results: After 72 h of action for the compounds, 10 μL/hole CCK8 was added, incubated in the incubator for an appropriate time, and the absorbance was measured at 450 nm.

Assay [3] has as its system human ovarian cancer cells SK-OV-3. The assay is described as follows: Inhibition on the proliferation of tumor cells (CCK8), SK-OV-3. The settings on record: for IC50: read-out: SK-OV-3 IC50. The class given is cell-based. On the procedure: as §1, §2, §3
The test system of assay [4] is human gastric cancer cells MKN-45. The assay is described as follows: Inhibition on the proliferation of tumor cells (CCK8), MKN-45. The class given is cell-based. As to conditions: read-out: MKN-45 IC50. On the procedure: as §1, §2, §3, §4
Assay [5] concerns human colon cancer cells HCT116. As to the kind of experiment: Inhibition on the proliferation of tumor cells (CCK8), HCT116. In kind it is cell-based. The settings on record: for IC50: read-out: HCT116 IC50. How it is done: as §1, §2, §3
Assay [6] relates to human lung adenocarcinoma cells HCC78. The assay is described as follows: Inhibition on the proliferation of tumor cells (CCK8), HCC78. As to conditions: read-out: HCC78 IC50. In kind it is cell-based. On the procedure:
as §1, §2, §3

The target in assay [7] is KDR (Homo sapiens (Human), UniProt P35968). As to the kind of experiment: Inhibitory activity on KDR kinase (HTRF, XL-665/antibody). The class given is biochemical. How it is done:
The compounds in the above Examples are used for detecting and screening the inhibitory activities of C-MET and KDR kinase.
(2) Incubated at 25° C. for 5 min;
(3) 2 μL of ATP/substrate/MgCl2/MnCl2/SEB/DTT mixed solution were added into the holes;
(4) Centrifugated at 1000 rpm for 1 min, and incubated by vibration at 30° C. for 30 min;
(6) Incubated at 25° C. for 1 h;
(8) The data was analyzed according to the instructions of the kit, and the fitting calculation of IC50 was performed using GraphPad Prism5.
A general note: Time-resolved FRET reads energy transfer from a long-lived donor to a nearby acceptor.

Sequence of KDR (P35968 20-1356): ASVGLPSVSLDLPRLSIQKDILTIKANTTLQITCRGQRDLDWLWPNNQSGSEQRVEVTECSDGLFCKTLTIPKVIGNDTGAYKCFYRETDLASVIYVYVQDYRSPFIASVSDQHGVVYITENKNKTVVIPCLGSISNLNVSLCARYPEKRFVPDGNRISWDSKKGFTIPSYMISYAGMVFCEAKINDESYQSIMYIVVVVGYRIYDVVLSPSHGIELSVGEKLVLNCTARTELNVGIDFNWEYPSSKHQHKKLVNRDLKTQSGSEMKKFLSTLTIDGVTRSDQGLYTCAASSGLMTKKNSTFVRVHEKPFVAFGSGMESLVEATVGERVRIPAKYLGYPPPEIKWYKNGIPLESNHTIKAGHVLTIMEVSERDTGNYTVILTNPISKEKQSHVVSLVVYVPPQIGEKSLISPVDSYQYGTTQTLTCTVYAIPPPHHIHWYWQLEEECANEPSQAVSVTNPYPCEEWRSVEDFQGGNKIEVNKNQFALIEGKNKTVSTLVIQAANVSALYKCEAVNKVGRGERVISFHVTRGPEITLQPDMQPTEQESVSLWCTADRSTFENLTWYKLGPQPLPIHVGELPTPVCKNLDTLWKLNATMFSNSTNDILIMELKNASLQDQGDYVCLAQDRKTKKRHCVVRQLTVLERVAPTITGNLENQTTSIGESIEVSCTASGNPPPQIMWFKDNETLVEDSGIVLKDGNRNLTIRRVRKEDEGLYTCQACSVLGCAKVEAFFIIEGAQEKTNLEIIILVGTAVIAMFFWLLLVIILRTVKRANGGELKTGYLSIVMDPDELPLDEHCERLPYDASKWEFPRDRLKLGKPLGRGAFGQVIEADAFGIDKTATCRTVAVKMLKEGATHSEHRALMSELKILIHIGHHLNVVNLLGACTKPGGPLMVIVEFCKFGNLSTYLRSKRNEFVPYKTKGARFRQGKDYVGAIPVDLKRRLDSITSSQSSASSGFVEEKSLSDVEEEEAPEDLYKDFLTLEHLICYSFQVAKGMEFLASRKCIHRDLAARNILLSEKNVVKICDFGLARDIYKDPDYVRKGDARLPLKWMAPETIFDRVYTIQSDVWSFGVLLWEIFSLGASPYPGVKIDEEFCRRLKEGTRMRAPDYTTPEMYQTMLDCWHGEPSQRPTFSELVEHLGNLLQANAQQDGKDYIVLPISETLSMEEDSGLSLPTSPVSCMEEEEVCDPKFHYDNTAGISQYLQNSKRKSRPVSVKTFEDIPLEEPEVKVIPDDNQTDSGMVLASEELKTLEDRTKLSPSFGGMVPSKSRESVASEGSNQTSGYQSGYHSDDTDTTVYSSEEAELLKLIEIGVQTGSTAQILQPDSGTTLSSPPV

Turning to `COc1cc2c(Oc3ccc(NC(=O)C4(C(=O)Nc5ccc(F)cc5)CC4)cc3F)ccnc2cc1OCC1CC(N2CCOCC2)C1` (centres unmarked) [Compound 5], the IC50 in assay [1] (72 h, CCK8) was determined as 1600 nM; in assay [2] (72 h, CCK8) it was 1140 nM; in assay [3] (72 h, CCK8), 3490 nM; in assay [4] (72 h, CCK8), 1260 nM; in assay [5] (72 h, CCK8), 1660 nM; in assay [6] (Table 4 (FIG. 4), 72 h, CCK8) it was 44.2 nM. In assay [7], it took 39.9 nM to reach half-maximal inhibition (IC50).

For `COc1cc2c(Oc3ccc(NC(=O)C4(C(=O)Nc5ccc(F)cc5)CC4)cc3F)ccnc2cc1OC1CC(N2CCOCC2)C1` (centres unmarked) [Compound 10, N-p-fluorophenyl-N-3-fluoro-4-[6-methoxyl-7-(3-morpholine-cyclobutyl)oxyquinoline-4-]oxyphenyl cyclopropyl-1,1-dimethyl formamide], the half-inhibitory concentration (IC50) is 4400 nM in assay [1]; 1600 nM in assay [2]; 7850 nM in assay [3]; 3200 nM in assay [4]; 2600 nM in assay [5]; 107 nM in assay [6]. The IC50 in assay [7] stood at 64.2 nM.

For the compound `COc1cc2c(Oc3ccc(NC(=O)C4(C(=O)Nc5ccc(F)c(F)c5)CC4)cc3F)ccnc2cc1OCCC[N+]1(C)CCOCC1` [For-Methyl, reference compound], the “A549 IC50” value in assay [1] was “No inhibition”. Moreover, the “SK-OV-3 IC50” value in assay [3] is on record as “No inhibition”. In assay [5], the “HCT116 IC50” value is listed as “No inhibition”. Further, the IC50 in assay [6] (Homo sapiens, HCC78, 72 h) was above 10000 nM.

Consider `COc1cc2c(Oc3ccc(NC(=O)C4(C(=O)Nc5ccc(F)cc5)CC4)cc3F)ccnc2cc1OCCCN1CCOCC1` [Foretinib, reference compound], for which the concentration for half-maximal inhibition (IC50) in assay [1] (Homo sapiens, A549, 72 h) turned out to be 2830 nM; in assay [2] (Homo sapiens, U-87 MG, 72 h), 1650 nM; in assay [3] (Homo sapiens, SK-OV-3, 72 h) it was 17200 nM; in assay [4] (Homo sapiens, MKN-45, 72 h), 1870 nM; in assay [5] (Homo sapiens, HCT-116, 72 h), 2060 nM.

The record behind these values is patent US10882853B2, “Tyrosine kinase inhibitor and application thereof” (LaNova Medicines Limited, priority 2016, dated 2021).
